Key:
[1] = tested on: Bacillus stearothermophilus spores; assay: Spore outgrowth (color change) of indicators after hydrogen peroxide plasma sterilization; type: cell-based; settings: 1–22 min diffusion
Description: (§1) Sterilization indicators for Examples 6–9 were prepared as described above with the exception that closure member 22 of the sterilization indicator was constructed of TYVEK™ high-density polyethylene fiber material, commercially available from E.I. du Pont de Nemours and Co., Wilmington, Del.
(§2) Sterilization indicators were made as described above with spores that had been coated with each of the chemicals and concentrations listed in Table 6. The indicators were placed in instrument trays and exposed to a hydrogen peroxide plasma sterilization procedure at 45–55° C. in a STERRAD™ 100SI GMP Sterilizer, obtained from Advanced Sterilization Products Co., Irvine, Calif. During the sterilization procedure a vacuum was drawn in the sterilization chamber for 5–6 minutes until the pressure was reduced to 300 mTorr. A 1.8 ml aliquot of an aqueous solution of 58–60% hydrogen peroxide was then injected into the sterilization chamber over a period of about 6 minutes, yielding an empty chamber concentration of […] hydrogen peroxide, and hydrogen peroxide vapor was allowed to diffuse throughout the chamber for 1–22 minutes at 6–10 Torr. A vacuum was then drawn, reducing the pressure to 500 mTorr and removing all detectable hydrogen peroxide vapor from the chamber.
(§3) After exposure to the sterilization procedure, the indicators were removed from the sterilizer and the inner containers containing the enzyme substrate and nutrient medium were crushed. The indicators were then incubated at 60° C. and examined for fluorescence every hour for 5 hours using a 3M™ ATTEST™ Model 190 Rapid Autoreader, commercially available from 3M Company, St. Paul, Minn. Additionally, spore growth, as indicated by a color change from purple to yellow, was determined visually after 168 hours of incubation.
(§4) The number of growth positive indicators detected after 168 hours of incubation is recorded in Table 6.
as §2, with “7.” for “6.”
as §2, with “8.” for “6.”, “chamber. […]” for “chamber.”

[2] = tested on: enzyme associated with Bacillus stearothermophilus spores; assay: Rapid enzyme fluorescence readout of indicators after hydrogen peroxide plasma sterilization; type: biochemical; settings: for FLUORESCENCE - PERCENT POSITIVE 1 HR / FLUORESCENCE - PERCENT POSITIVE 2 HR / FLUORESCENCE - PERCENT POSITIVE 3 HR / FLUORESCENCE - PERCENT POSITIVE 4 HR / FLUORESCENCE - PERCENT POSITIVE 5 HR: 1–22 min diffusion;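 for FLUORESCENCE - PERCENT POSITIVE 5 HR: percent of growth-positive indicators that were also fluorescence-positive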
Description: as §1, §2, §3, §4
as §2, with “7.” for “6.”
as §2, with “8.” for “6.”, “chamber. […]” for “chamber.”

[3] = tested on: Bacillus stearothermophilus spores; assay: Spore outgrowth (color change) of indicators after prevacuum steam sterilization; type: cell-based; settings: Example 4, 4-pulse prevacuum steam 121° C., 7–18 min
Description: (§5) The indicators prepared for the Examples were dual rapid readout indicators that provided both a rapid, enzyme-based efficacy test and a confirmatory spore outgrowth test. Spores coated on the carrier strip 16 served as the source of active enzyme whose activity was measured by the rapid enzyme test. These same spores were then incubated in the spore outgrowth portion of the test.
(§6) Bacillus stearothermophilus, commercially available as ATCC 7953 from American Type Culture Collection, Rockville, Md., was grown overnight (16 hours) at 58° C. in tryptic soy broth. This culture was used to inoculate the surface of agar plates consisting of 8 g/l nutrient broth, 4 g/l yeast extract, 0.1 g/l manganese chloride and 20 g/l agar at pH 7.2. Plates were incubated at 58° C. for 72 hours. Spores were scraped from the plates and suspended in sterile distilled water. The spores were separated from the vegetative debris by centrifuging the suspension at 7000 rpm and 4° C. for 20 minutes. The supernatant was poured off and the spores were resuspended in sterile distilled water. The cleaning procedure was repeated several times. After the final wash, the spores were suspended in sterile distilled water, at a concentration of approximately 1×10^8 spores per milliliter.
(§7) The spores were then treated with the chemicals identified in Tables 1–5. All chemicals tested were obtained from commercial sources. The spores were centrifuged at 6000 rpm for 10 minutes. The supernatant and coating chemical mixtures were heated at 60–80° C. for several minutes and vortexed to get the material into solution. The spores were then mixed into the sterilant-resistant chemical solution. The sterilant-resistant chemical solution was applied to 5×25 mm, 591 A paper strips (Schleicher & Schuell, Inc., Keene, N.H.) by pipetting 10–15 microliters to each strip for a final population of about 1×10^6 spores per strip. The strips were dried 16 hours at 37° C.
(§8) The treated spore strips were placed on the bottom of the outer container 12 of the indicator 10 and a barrier was inserted between the spore strip 16 and the inner container 18, which contained enzyme substrate. A […] ( 11/16 inch) disc of polypropylene blown microfiber material, with a weight of 200 g/m^2, commercially available as “THINSULATE™ 200-B brand Thermal Insulation” from 3M Company, St. Paul, Minn., was used as the barrier. The inner container 18 contained 0.67 ml nutrient medium, consisting of 17 g of a bacteriological peptone and a 0.17 g/l of L-alanine, as well as 0.1 g 4-methylumbelliferyl-alpha-D-glucoside, commercially available from Sigma Chemical Company, St. Louis, Mo., dissolved in 200 microliters of N,N-dimethylformamide, and 0.03 g bromocresol purple pH indicator dye, per liter of water. The pH of the enzyme substrate and nutrient medium solution was adjusted to 7.6 with 0.1N sodium hydroxide.
(§9) Sterilization indicators were made as described above with each of the chemicals and concentrations described in Table 1. Control indicators were made using untreated spores. The indicators were placed in metal instrument trays and exposed at 121° C. in a Getinge Steam Sterilizer (Getinge International, Inc., 1100 Towbin Ave., Lakewood, N.J.) using a 4-pulse prevacuum cycle at 121° C. with a vacuum level of 0.075–0.085 bar and a steam pulse to 1.00 bar for each pulse. Indicators were exposed in the sterilizer for between 7 and 13 minutes. This cycle is depicted in the time-pressure diagram in FIG. 5. After exposure the inner containers containing the enzyme substrate and nutrient medium were crushed and the indicators were incubated at 60° C. The indicators were examined for fluorescence using a 3M™ ATTEST™ Model 190 Rapid Autoreader, commercially available from 3M Company, St. Paul, Minn. Additionally, spore growth, as indicated by a color change from purple to yellow, was determined visually after 168 hours of incubation at 60° C. […]

[4] = tested on: enzyme associated with Bacillus stearothermophilus spores; assay: Rapid enzyme fluorescence readout of dual rapid readout indicators after prevacuum steam sterilization; type: biochemical; settings: 4-pulse prevacuum steam 121° C.; for FLUORESCENCE - PERCENT POSITIVE 1 HR / FLUORESCENCE - PERCENT POSITIVE 2 HR / FLUORESCENCE - PERCENT POSITIVE 3 HR / FLUORESCENCE - PERCENT POSITIVE 4 HR: Example 4, 7–18 min
Description: as §5, §6, §7, §8, §9

## Alkyl Polyglucoside
[1]; Example 8, 20 mg/ml coating
  NO. GROWTH POSITIVE 168 HR: 5
[1]; Example 8, 40 mg/ml coating
  NO. GROWTH POSITIVE 168 HR: 1
[2]; Example 8, 20 mg/ml coating
  FLUORESCENCE - PERCENT POSITIVE 1 HR: 0%
  FLUORESCENCE - PERCENT POSITIVE 2 HR: 0%
  FLUORESCENCE - PERCENT POSITIVE 3 HR: 0%
  FLUORESCENCE - PERCENT POSITIVE 4 HR: 0%
  FLUORESCENCE - PERCENT POSITIVE 5 HR: 0%
[2]; Example 8, 40 mg/ml coating
  FLUORESCENCE - PERCENT POSITIVE 1 HR: 0%
  FLUORESCENCE - PERCENT POSITIVE 2 HR: 0%
  FLUORESCENCE - PERCENT POSITIVE 3 HR: 0%
  FLUORESCENCE - PERCENT POSITIVE 4 HR: 0%
  FLUORESCENCE - PERCENT POSITIVE 5 HR: 0%

## Decaglyceral Hexaoleate
[3]; 50 mg/ml coating
  NO. GROWTH POSITIVE 168 HR: 9
[3]; 100 mg/ml coating
  NO. GROWTH POSITIVE 168 HR: 18
[1]; Example 6, 10 mg/ml coating
  NO. GROWTH POSITIVE 168 HR: 12
[2]; 1–3 hours after exposure
  accuracy of sterilization indicators compared to indicators made with untreated spores: improved
[2]; Example 6, 10 mg/ml coating
  FLUORESCENCE - PERCENT POSITIVE 1 HR: 100%
  FLUORESCENCE - PERCENT POSITIVE 2 HR: 100%
  FLUORESCENCE - PERCENT POSITIVE 3 HR: 100%
  FLUORESCENCE - PERCENT POSITIVE 4 HR: 100%
  FLUORESCENCE - PERCENT POSITIVE 5 HR: 100%
[4]; 50 mg/ml coating
  FLUORESCENCE - PERCENT POSITIVE 1 HR: 0%
  FLUORESCENCE - PERCENT POSITIVE 2 HR: 0%
  FLUORESCENCE - PERCENT POSITIVE 3 HR: 22.2%
  FLUORESCENCE - PERCENT POSITIVE 4 HR: 55.6%
[4]; 100 mg/ml coating
  FLUORESCENCE - PERCENT POSITIVE 1 HR: 5.6%
  FLUORESCENCE - PERCENT POSITIVE 2 HR: 16.7%
  FLUORESCENCE - PERCENT POSITIVE 3 HR: 27.8%
  FLUORESCENCE - PERCENT POSITIVE 4 HR: 33.3%

## Decaglyceryl Dipalmitate
[3]; 50 mg/ml coating
  NO. GROWTH POSITIVE 168 HR: 28
[3]; 100 mg/ml coating
  NO. GROWTH POSITIVE 168 HR: 26
[1]; Example 8, 50 mg/ml coating
  NO. GROWTH POSITIVE 168 HR: 27
[2]; Example 8, 50 mg/ml coating
  FLUORESCENCE - PERCENT POSITIVE 1 HR: 66.7%
  FLUORESCENCE - PERCENT POSITIVE 2 HR: 74.1%
  FLUORESCENCE - PERCENT POSITIVE 3 HR: 77.8%
  FLUORESCENCE - PERCENT POSITIVE 4 HR: 77.8%
  FLUORESCENCE - PERCENT POSITIVE 5 HR: 77.8%
[4]
  accuracy of sterilization indicators compared to indicators made with untreated spores: improved
[4]; 50 mg/ml coating
  FLUORESCENCE - PERCENT POSITIVE 1 HR: 7.1%
  FLUORESCENCE - PERCENT POSITIVE 2 HR: 67.9%
  FLUORESCENCE - PERCENT POSITIVE 3 HR: 89.3%
  FLUORESCENCE - PERCENT POSITIVE 4 HR: 92.9%
[4]; 100 mg/ml coating
  FLUORESCENCE - PERCENT POSITIVE 1 HR: 34.6%
  FLUORESCENCE - PERCENT POSITIVE 2 HR: 61.5%
  FLUORESCENCE - PERCENT POSITIVE 3 HR: 69.2%
  FLUORESCENCE - PERCENT POSITIVE 4 HR: 69.2%

Source: patent US7045343B2, “Sterilization indicator test packs” (3M Innovative Properties Company, priority 1998, dated 2006)
